Test results taken from publication PMC3983855, “Identification and enzymatic characterization of acid phosphatase from Burkholderia gladioli” (BMC Research Notes, 2014).

System: membrane-bound acid phosphatase (MBAcP)
Settings: read-out: K0.5; 50 mM acetate pH 6.0, 37°C; membrane fraction; n = 1.3

SMILES: O=[N+]([O-])c1ccc(OP(=O)(O)O)cc1 [p-nitrophenylphosphate]
- Km: 65 µM
